Some test systems named below: NCI-H522; EKVX; OVCAR-4; SK-MEL-28; MDA-N; TK-10; U-251; IGROV-1; 786-0; UO-31; OVCAR-3; KM12; MOLT-4; RXF 393; A549; CCRF-CEM; COLO 205; HCC 2998; DU-145; SR.
Holding throughout (experiment): DTP human tumour cell line panel, 48 h

Each structure is given as a SMILES string.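 Assay format: 96-well plates, 48-hour exposure. GI50 = concentration required for 50% inhibition of growth.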 Activity calls are given as the source filed them. No stated cut-off is given here; in the data, active = GI50 up to about 1.1 µM and inactive = higher.

For orientation: GI50 means the concentration that inhibits growth by half. For the compound `O=c1[nH]nc(-c2ccc3ccccc3c2)[nH]1`, the GI50 is > 100 µM (inactive) with NCI-H522; 0.282 µM (active) in the test with EKVX; > 100 µM (inactive) in the test with OVCAR-4; > 100 µM (inactive) in the test on SK-MEL-28; > 100 µM (inactive) in the test with MDA-N; > 100 µM (inactive) in the test on TK-10. Also, the GI50 with U-251 was > 100 µM (inactive); in the test with IGROV-1 it was 70.3 µM (inactive); in the test on 786-0 it was > 100 µM (inactive); in the test with UO-31 it was 43.3 µM (inactive); with OVCAR-3 it was > 100 µM (inactive); in the test on KM12 it was 36.2 µM (inactive). Also, the GI50 with MOLT-4, in the test on RXF 393, in the test with A549, in the test on CCRF-CEM, with COLO 205 and in the test with HCC 2998 was > 100 µM (inactive) each time. Besides, the GI50 is > 100 µM (inactive) in the test with DU-145 and 45.1 µM (inactive) in the test with SR.
On to `NC(=O)NC(=O)c1cccc(NC(=O)CI)c1`, for which the concentration for 50% growth inhibition (GI50) is < 0.01 µM (active) with NCI-H522; 0.863 µM (active) in the test on EKVX; 0.148 µM (active) in the test with OVCAR-4; 0.389 µM (active) in the test with SK-MEL-28; < 0.01 µM (active) with MDA-N; < 0.0146 µM (active) in the test on TK-10. Further, the GI50 in the test on U-251 was 0.0291 µM (active); in the test with IGROV-1, 0.0483 µM (active); in the test with 786-0, < 0.01 µM (active); with UO-31, 0.162 µM (active); with OVCAR-3, < 0.01 µM (active); in the test on KM12, 0.0391 µM (active). Also, the GI50 is < 0.01 µM (active) with MOLT-4; 0.0513 µM (active) with RXF 393; 0.805 µM (active) in the test on A549; < 0.01 µM (active) with CCRF-CEM; < 0.01 µM (active) in the test with COLO 205; 0.228 µM (active) in the test with HCC 2998. Further, the GI50 was 0.0344 µM (active) in the test on DU-145 and < 0.01 µM (active) in the test on SR.

The record behind these values is ChEMBL document CHEMBL1201862, “PubChem BioAssay data set” (2004).
